What was measured:
Format in all cases: biochemical
[1] = target: T1, IDH1^R132H homodimer enzyme (Homo sapiens, UniProt O75874, R132H); assay: NADPH depletion assay, IDH1 R132H
T1 construct: purchased not specified
How it was run: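 IDH1 R132H enzyme (8 nM as diluted) in Tris-HCl pH 7.6 with 10 mM MgCl2, 0.001% Triton X-100 and 4 mM β-mercaptoethanol is preincubated 15 min at RT with compound. Substrate mix (12 uM NADPH, 3.4 mM α-ketoglutarate) is added for 60 min; remaining NAD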

[2] = target: T2, IDH1^R132C (Homo sapiens, UniProt O75874, R132C); assay: NADPH depletion assay, IDH1 R132C
T2 construct: purchased not specified
How it was run: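 IDH1 R132C (2 nM) preincubated 15 min at RT with compound in Tris-HCl pH 7.6/MgCl2 buffer, then 60 min RT with NADPH and 0.14 mM alpha-ketoglutarate. Remaining NADPH read by diaphorase/resazurin fluorescence (Ex544/Em590).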

[3] = target: T3, IDH2^R172K (Homo sapiens, UniProt P48735, R172K); assay: NADPH depletion assay, IDH2 R172K
T3 construct: purchased not specified
T3 sequence (P48735 40-452 R172K): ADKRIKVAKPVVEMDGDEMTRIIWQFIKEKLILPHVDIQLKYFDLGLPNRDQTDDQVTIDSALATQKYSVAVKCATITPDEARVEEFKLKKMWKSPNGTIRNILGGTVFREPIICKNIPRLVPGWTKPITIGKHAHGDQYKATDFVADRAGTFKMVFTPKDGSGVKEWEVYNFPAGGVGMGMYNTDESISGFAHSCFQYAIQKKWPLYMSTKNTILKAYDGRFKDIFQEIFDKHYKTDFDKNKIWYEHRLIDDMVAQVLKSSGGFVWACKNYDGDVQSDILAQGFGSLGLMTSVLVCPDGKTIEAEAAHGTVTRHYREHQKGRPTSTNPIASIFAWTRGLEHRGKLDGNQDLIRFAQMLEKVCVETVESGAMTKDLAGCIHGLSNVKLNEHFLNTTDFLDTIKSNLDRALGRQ
Description: IDH mutated enzyme activity converting alpha-ketoglutarate to 2-hydroxyglutaric acid is measured using a NADPH depletion assay. In the assay the remaining cofactor is measured at the end of the reaction with the addition of a catalytic excess of diaphorase and resazurin, to generate a fluorescent signal in proportion to the amount of NADPH remaining. IDH1 WT enzyme as well as mutated isoforms IDH1^R132H, IDH1^R132C, and IDH^2R172K enzymes are commercially available proteins (see e.g. Sino Biological, Abcam, Active Motif or Creative BioMart).
IDH1^R132H homodimer enzyme are diluted to 8 nM, in 10 μL of Assay Buffer (150 mM NaCl, 50 mM Tris-HCl pH 7.6, 10 mM MgCl2, 0.001% Triton X-100, 4 mM β-mercaptoethanol); 0.2 uL of test compound, previously serially diluted 1 to 3, >10 experimental points from 1 mM in DMSO, is added and the mixture is incubated for 15 minutes at room temperature. The reaction is started with the addition of 10 μL of Substrate Mix (12 uM NADPH, 3.4 mM alpha-ketoglutarate in Assay Buffer) and the mixture is incubated for 60 minutes at room temperature. The reaction is terminated with the addition of 5 μl of Detection Buffer (100 μg/mL diaphorase, 30 μM resazurin, in IX Assay Buffer), and is incubated for 15 minute before reading on a ViewLux as platereader at Ex544/Em590.
Compounds are assayed for their activity against IDH2^R172K following the same assay as above with the following modifications: IDH2^R172K and alpha-ketoglutarate final concentrations in the Assay Buffer is 16 nM and 0.55 mM, respectively.

T2 sequence (O75874 whole entry R132C): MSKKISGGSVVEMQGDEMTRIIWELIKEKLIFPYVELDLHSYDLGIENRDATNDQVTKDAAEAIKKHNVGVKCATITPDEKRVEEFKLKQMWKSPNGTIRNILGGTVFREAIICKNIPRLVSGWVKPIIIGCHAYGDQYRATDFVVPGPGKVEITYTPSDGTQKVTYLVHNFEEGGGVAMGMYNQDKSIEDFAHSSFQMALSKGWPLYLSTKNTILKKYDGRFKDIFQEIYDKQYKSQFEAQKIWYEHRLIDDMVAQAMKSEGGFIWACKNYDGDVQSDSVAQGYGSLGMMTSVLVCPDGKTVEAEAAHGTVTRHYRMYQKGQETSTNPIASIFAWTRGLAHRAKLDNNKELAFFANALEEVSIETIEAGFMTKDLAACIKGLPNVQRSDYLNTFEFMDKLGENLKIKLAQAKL
T1 sequence (O75874 whole entry R132H): as the sequence (O75874 whole entry R132C) above, with C132H counted along it

SMILES	IC50 [1] [nM]	IC50 [2] [nM]	IC50 [3] [nM]
C[C@H](Nc1ncc2ccc(=O)n(Cc3cccc(O)c3)c2n1)c1ccc(Cl)cc1 [cpd 71, 2-{[(1S)-1-(4-chlorophenyl)ethyl]amino}-8-(3-hydroxybenzyl)pyrido[2,3-d]pyrimidin-7(8H)-one]	2480	964	4830
CC(C)Cn1c(=O)ccc2cnc(N[C@@H](C)c3ccc(CN4CCC(F)(F)CC4)cc3)nc21 [cpd 95, 2-{[(1S)-1-{4-[(4,4-difluoropiperidin-1-yl)methyl]phenyl}ethyl]amino}-8-(2-methylpropyl)pyrido[2,3-d]pyrimidin-7(8H)-one]	425	162	5160
CC(Nc1ncc2ccc(=O)n(Cc3ccccc3)c2n1)c1ccc(CN2CCC(F)(F)CC2)cc1 (stereo not drawn) [cpd 96, 8-benzyl-2-[(1-{4-[(4,4-difluoropiperidin-1-yl)methyl]phenyl}ethyl)amino]pyrido[2,3-d]pyrimidin-7(8H)-one]	801	420	5020
CC(Nc1ncc2ccc(=O)n(Cc3ccccc3F)c2n1)c1ccc(CN2CCC(F)(F)CC2)cc1 (stereo not drawn) [cpd 97, 2-[(1-{4-[(4,4-difluoropiperidin-1-yl)methyl]phenyl}ethyl)amino]-8-(2-fluorobenzyl)pyrido[2,3-d]pyrimidin-7(8H)-one]	524	323	5030
CCCn1c(=O)ccc2cnc(N[C@@H](C)c3ccc(CN4CCC(F)(F)CC4)cc3)nc21 [cpd 101, 2-{[(1S)-1-{4-[(4,4-difluoropiperidin-1-yl)methyl]phenyl}ethyl]amino}-8-propylpyrido[2,3-d]pyrimidin-7(8H)-one]	575	271	2670
C[C@H](Nc1ncc2ccc(=O)n(CC(F)(F)F)c2n1)c1ccc(CN2CCC(F)(F)CC2)cc1 [cpd 106, 2-{[(1S)-1-{4-[(4,4-difluoropiperidin-1-yl)methyl]phenyl)ethyl]amino)-8-(2,2,2-trifluoroethyl)pyrido[2,3-d]pyrimidin-7(8H)-one]	1230	667	2910

These reach a lower IC50 [1]. Values come first.

IC50 [1] [nM]	IC50 [2] [nM]	IC50 [3] [nM]	SMILES
366	217	5340	CC(Nc1ncc2ccc(=O)n(Cc3c(F)cccc3F)c2n1)c1ccc(CN2CCC(F)(F)CC2)cc1 (stereo not drawn) [cpd 98, 8-(2,6-difluorobenzyl)-2-[(1-{4-[(4,4-difluoropiperidin-1-yl)methyl]phenyl}ethyl)amino]pyrido[2,3-d]pyrimidin-7(8H)-one]
218	141	5050	C[C@H](Nc1ncc2ccc(=O)n(CC(C)(C)C)c2n1)c1ccc(-c2ccsc2)cc1 [cpd 133, 8-(2,2-dimethylpropyl)-2-({(1S)-1-[4-(thiophen-3-yl)phenyl]ethyl}amino)pyrido[2,3-d]pyrimidin-7(8H)-one]
59	16	1420	CC(C)[C@H](C)n1c(=O)ccc2cnc(N[C@@H](C)c3ccc(OC4CCN(C(=O)OCc5ccccc5)CC4)cc3)nc21 [cpd 146, 4-(4-{(S)-1-[8-((S)-1,2-Dimethyl-propyl)-7-oxo-7,8-dihydro-pyrido[2,3-d]pyrimidin-2-ylamino]-ethyl}-phenoxy)-piperidine-1-carboxylic acid benzyl ester]
187	109	5830	C[C@H](Nc1ncc2ccc(=O)n(CC(C)(C)C)c2n1)c1ccc(CN2CCC(F)(F)C2)cc1 [cpd 148, 2-{[(1S)-1-{4-[(3,3-difluoropyrrolidin-1-yl)methyl]phenyl}ethyl]amino}-8-(2,2-dimethylpropyl)pyrido[2,3-d]pyrimidin-7(8H)-one]
85	48	3330	CC[C@@H](C)n1c(=O)ccc2cnc(N[C@@H](C)c3ccc(CN4CCCC(F)(F)C4)cc3)nc21 [cpd 149, 8-[(2R)-butan-2-yl]-2-{[(1S)-1-{4-[(3,3-difluoropiperidin-1-yl)methyl]phenyl}ethyl]amino}pyrido[2,3-d]pyrimidin-7(8H)-one]
